According to patent US20260256714A1 (priority 2022, published 2026):

What was measured:
3T3-L1 cells = experiment: Oil Red O staining of MDI-differentiated 3T3-L1 preadipocytes (fat accumulation); format: cell-based; settings: 0.5 or 1 μM every 48 hours, 6 days of MDI differentiation
Procedure: To differentiate 3T3-L1 cells grown to a confluent state into adipocytes, they were cultured in DMEM medium supplemented with MDI {0.5 mM isobutyl-methylxanthine, 1 μM dexamethasone, and 5 μg/mL insulin} for 48 h, then cultured in DMEM medium supplemented with 5 μg/mL insulin for 48 h, and then cultured in a medium containing 10% fetal bovine serum for 48 h.
The cells were incubated for a total of 6 days, and the cultures were removed at which point differentiation was complete, followed by Oil Red O staining. The cells were fixed with 35 to 40% formaldehyde for 15 minutes, washed with PBS, and stained with Oil Red O solution for 20 minutes. After completion of staining, the cells were washed four times with PBS, dissolved in isopropanol (2-propanol), and O.D. values were measured at 515 nm.

glucocorticoid receptor = molecular target: T1, glucocorticoid receptor (Homo sapiens, UniProt P04150); experiment: fluorescence polarization competition assay (POLARSCREEN Glucocorticoid Receptor Competitor Assay Kit, Red); format: binding
T1 sequence (P04150 1-777): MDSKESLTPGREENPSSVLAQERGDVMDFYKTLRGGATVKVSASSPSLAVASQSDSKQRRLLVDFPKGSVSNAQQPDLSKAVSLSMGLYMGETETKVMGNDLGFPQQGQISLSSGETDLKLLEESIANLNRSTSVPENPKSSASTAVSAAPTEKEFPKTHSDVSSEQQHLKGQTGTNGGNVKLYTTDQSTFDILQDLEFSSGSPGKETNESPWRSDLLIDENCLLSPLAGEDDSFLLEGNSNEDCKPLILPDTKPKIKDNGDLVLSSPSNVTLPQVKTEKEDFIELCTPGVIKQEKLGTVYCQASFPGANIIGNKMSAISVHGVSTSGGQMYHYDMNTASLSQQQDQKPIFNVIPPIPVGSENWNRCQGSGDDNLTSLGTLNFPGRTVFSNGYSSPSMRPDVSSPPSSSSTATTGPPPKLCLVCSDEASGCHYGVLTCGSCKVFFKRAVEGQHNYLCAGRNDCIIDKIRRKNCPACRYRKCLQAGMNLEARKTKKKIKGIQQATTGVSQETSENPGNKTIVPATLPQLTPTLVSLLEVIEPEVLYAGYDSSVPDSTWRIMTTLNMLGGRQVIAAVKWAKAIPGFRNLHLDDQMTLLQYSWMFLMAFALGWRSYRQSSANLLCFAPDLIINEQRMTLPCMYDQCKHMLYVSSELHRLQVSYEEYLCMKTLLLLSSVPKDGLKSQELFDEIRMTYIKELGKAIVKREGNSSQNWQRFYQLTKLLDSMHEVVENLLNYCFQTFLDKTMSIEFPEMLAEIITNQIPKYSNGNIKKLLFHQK
Procedure: The principle of the assay is to determine the binding affinity of a small molecule compound to glucocorticoid receptor by measuring the decrease in polarization caused by the failure of the fluormone tracer to bind to the glucocorticoid receptor in the presence of a small molecule compound that competitively binds to the glucocorticoid receptor.
The excitation wavelength used for the measurement was 535 nm, and the emission wavelength was 590 nm. This experiment was performed three times using the same method and the average value was calculated. A dose-response curve was derived using the measured values, and the IC50 value was calculated by finding the concentration of the sample corresponding to half of the highest measured value.

[1] = tested on: intracellular glucocorticoid receptor; experiment: luciferase assay in GR-GAL4 Reporter (Luc)-HEK293 cells; format: cell-based; settings: different concentrations, 1 hour before dexamethasone 20 nM, 24 hours incubation
Procedure: In this Example, transfected cells GR-GAL4 Reporter (Luc)-HEK293 (BPS Bioscience, USA) containing a recombinant gene in which luciferase is recombined into the promoter site of GRE were used. Transformed cells were seeded at 30,000 cells per well in 96 wells and stabilized for 16 hours. […] After 1 hour, the cells were treated with dexamethasone, a glucocorticoid agonist, at a concentration of 20 nM and incubated for 24 hours. 100 μL of ONE-STEP™ Luciferase Assay System (BPS Bioscience, USA) was added per well and reacted for 10 minutes, and then luminescence was measured using SpectraMax iD3 (Molecular Devices, USA).

C[C@@]1(C(=O)O)CC[C@]2(C)CC[C@]3(C)C4=CC(=O)c5c(cc(O)c(O)c5C=O)[C@]4(C)CC[C@@]3(C)[C@@H]2C1 [demethylzeylasteral, (2R,4aS,6aR,6aS,14aS,14bR)-9-formyl-10,11-dihydroxy-2,4a,6a,6a,14a-pentamethyl-8-oxo-1,3,4,5,6,13,14,14b-octahydropicene-2-carboxylic acid]
intracellular fat accumulation (Oil Red O, O.D. at 515 nm) (3T3-L1 cells): reduction of intracellular fat accumulation in a concentration-dependent manner | IC50 (glucocorticoid receptor): 1190 nM | inhibitory effect on intracellular glucocorticoid receptor activity (luminescence) [1]: inhibited intracellular glucocorticoid receptor activity in a concentration-dependent manner
